According to ChEMBL document CHEMBL1201862, “PubChem BioAssay data set” (2004):
Activity calls are given as the source filed them. Residues, ends and D or L forms follow the SMILES beside them. *: point of attachment. Boc = CC(C)(C)OC(=O)*; Bn = c1ccc(C*)cc1

Assays:
[1] = molecular target: T1, Zinc finger protein mex-5 (Caenorhabditis elegans, UniProt Q9XUB2); assay: potency of MEX-5 RNA-binding blockers – biochemical, C. elegans, fluorescence polarization, dose response (AID 1960)
T1 sequence (Q9XUB2 whole entry): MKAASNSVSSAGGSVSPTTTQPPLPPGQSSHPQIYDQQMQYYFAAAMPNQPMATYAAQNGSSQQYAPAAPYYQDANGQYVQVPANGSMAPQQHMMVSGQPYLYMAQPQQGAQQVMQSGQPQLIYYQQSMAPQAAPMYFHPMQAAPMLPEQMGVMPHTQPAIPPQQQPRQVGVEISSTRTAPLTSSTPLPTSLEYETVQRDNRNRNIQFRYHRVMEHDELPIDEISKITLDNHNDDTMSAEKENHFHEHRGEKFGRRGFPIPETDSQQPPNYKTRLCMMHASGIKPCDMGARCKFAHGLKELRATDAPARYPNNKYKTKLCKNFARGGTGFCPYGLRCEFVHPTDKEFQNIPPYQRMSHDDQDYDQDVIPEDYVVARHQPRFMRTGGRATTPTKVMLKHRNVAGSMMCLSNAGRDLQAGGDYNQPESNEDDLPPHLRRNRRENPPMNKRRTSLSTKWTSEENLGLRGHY

[2] = molecular target: T2, RNA-binding protein pos-1 (Caenorhabditis elegans, UniProt G5EF15); assay: disruptors of C. elegans POS-1 RNA interaction – biochemical, fluorescence polarization, dose response (AID 1964);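 further: purified POS-1 fused to maltose binding protein made in E. coli; potency of compounds blocking POS-1 binding to fluorescent RNA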
T2 sequence (G5EF15 whole entry): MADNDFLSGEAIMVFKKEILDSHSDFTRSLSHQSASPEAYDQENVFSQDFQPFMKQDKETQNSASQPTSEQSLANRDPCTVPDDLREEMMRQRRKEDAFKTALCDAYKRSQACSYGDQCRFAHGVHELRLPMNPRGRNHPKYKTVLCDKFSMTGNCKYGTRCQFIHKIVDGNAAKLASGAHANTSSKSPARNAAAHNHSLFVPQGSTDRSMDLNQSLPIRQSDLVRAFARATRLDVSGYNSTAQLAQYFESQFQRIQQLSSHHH

Cytochrome P450 2C9 = Cytochrome P450 2C9 (Homo sapiens, UniProt P11712)
Cytochrome P450 3A4 = Cytochrome P450 3A4 (Homo sapiens, UniProt P08684);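 further: CYP3A4 tested as one member of a cytochrome P450 panel screen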
[3] = fluconazole-exposed Candida albicans growth modulators – fluorescence, retest, confirmation (AID 2467); type: functional, cell-based
[4] = NIH-3T3 fibroblast cytotoxicity, dose response, cytotoxicity control, cell-based, fluorescence, Alamar Blue, secondary assay (AID 2327); type: functional;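 further: NIH-3T3 mouse fibroblasts cultured with fluconazole at 8 µg/mL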
[5] = Luminescence Cell-Based Dose Retest to Confirm Inhibitors of Cancer Stem Cells. [Related pubchem assays (depositor defined):AID2717, AID2721]; type: functional; details: Homo sapiens
[6] = system: Streptococcus sp. 'group A'; assay: Streptococcus pyogenes SK(-)GAS viability under kanamycin – luminescence, BacTiterGlo, confirmation, counter-screen for streptokinase expression inhibitor project, dose response (AID 1900); type: functional, organism-based
Streptokinase A = molecular target: T3, Streptokinase A (Streptococcus pyogenes serotype M1, UniProt P10520); assay: viability-normalized secreted streptokinase activity reduction – plasminogen activation absorbance, OD405, dose response (AID 1914); type: functional, Streptococcus pyogenes M1 GAS;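 further: secreted streptokinase activity via plasminogen activation per viability signal from cell pellet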
T3 sequence (P10520 whole entry): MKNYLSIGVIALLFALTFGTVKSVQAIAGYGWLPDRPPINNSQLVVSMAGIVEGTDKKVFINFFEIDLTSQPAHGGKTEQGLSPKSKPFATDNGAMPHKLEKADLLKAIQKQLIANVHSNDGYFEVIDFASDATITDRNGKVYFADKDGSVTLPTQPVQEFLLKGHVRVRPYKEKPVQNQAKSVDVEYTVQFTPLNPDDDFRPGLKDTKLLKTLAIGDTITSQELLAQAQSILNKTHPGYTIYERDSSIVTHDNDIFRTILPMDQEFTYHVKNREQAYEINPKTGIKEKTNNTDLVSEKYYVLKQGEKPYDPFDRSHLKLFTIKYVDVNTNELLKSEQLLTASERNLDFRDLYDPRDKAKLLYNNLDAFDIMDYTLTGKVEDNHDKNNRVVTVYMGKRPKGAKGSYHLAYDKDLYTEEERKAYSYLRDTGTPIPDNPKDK

Streptococcus = assay: GAS UMAA2166 growth inhibition – luminescence, BacTiterGlo, counter-screen for streptokinase expression inhibitor project, dose response (AID 1915); type: functional, organism-based;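 further: potency for reduction of bacterial viability or growth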
INS1 = assay: INS-1E survival protection against cytokine death – cell-based, luminescence, retest, dose response (AID 449756); type: functional; details: Rattus norvegicus;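 further: cell death triggered by IL-1 beta plus TNF-alpha plus IFN-gamma mixture; protective hits raise ATP signal compared with cytokine alone wells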
Cytochrome P450 2C19 = Cytochrome P450 2C19 (Homo sapiens, UniProt P33261); assay: Cytochrome panel assay with activity outcomes. Panel member name: p450-cyp2c19 Compounds with AC50 equal or less than 10 uM are considered active; type: functional; details: read-out: AC50
H4 = assay: Luminescence Cell-Based Dose Response HTS to Identify Activators of 5'UTR Stem-Loop Driven Prion Protein mRNA Translation in H4 Neuroglioblastoma Cells. [Related pubchem assays: 1829 (Project Summary), 1814 (Primary HTS)]; type: functional; details: Homo sapiens
[7] = Luminescence Cell-Based Dose Response HTS to Identify Activators of Luciferase Translation or Activity in H4 […] Cells. [Related pubchem assays: 1829 (Project Summary), 1814 (Primary HTS)]; type: functional

Sequence of Cytochrome P450 3A4 (P08684 whole entry): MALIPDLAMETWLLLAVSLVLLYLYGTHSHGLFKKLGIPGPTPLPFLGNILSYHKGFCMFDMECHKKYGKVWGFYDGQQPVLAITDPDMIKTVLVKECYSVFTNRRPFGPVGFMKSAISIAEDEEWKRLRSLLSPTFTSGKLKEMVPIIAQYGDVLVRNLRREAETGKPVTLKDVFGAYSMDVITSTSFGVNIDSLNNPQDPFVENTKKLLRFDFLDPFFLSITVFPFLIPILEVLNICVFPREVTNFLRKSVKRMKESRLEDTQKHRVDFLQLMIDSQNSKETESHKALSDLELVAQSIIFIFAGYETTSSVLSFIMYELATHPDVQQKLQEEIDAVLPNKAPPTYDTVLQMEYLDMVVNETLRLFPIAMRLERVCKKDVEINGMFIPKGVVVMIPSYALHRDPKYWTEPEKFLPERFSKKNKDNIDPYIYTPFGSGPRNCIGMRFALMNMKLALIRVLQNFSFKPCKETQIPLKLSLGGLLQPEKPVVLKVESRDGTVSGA
Sequence of Cytochrome P450 2C9 (P11712 whole entry): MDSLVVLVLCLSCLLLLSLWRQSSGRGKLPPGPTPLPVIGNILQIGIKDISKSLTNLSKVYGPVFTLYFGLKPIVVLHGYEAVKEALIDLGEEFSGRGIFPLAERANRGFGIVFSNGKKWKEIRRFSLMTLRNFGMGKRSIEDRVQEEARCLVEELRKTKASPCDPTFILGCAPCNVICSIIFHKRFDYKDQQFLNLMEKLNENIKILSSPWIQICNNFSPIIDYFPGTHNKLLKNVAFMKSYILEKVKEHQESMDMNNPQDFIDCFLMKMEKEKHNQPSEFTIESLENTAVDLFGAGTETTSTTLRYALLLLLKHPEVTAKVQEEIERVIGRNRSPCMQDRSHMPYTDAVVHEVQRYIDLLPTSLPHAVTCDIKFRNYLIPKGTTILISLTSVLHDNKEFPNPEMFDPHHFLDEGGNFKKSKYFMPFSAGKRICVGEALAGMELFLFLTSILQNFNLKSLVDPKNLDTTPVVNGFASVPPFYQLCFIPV
Sequence of Cytochrome P450 2C19 (P33261 whole entry): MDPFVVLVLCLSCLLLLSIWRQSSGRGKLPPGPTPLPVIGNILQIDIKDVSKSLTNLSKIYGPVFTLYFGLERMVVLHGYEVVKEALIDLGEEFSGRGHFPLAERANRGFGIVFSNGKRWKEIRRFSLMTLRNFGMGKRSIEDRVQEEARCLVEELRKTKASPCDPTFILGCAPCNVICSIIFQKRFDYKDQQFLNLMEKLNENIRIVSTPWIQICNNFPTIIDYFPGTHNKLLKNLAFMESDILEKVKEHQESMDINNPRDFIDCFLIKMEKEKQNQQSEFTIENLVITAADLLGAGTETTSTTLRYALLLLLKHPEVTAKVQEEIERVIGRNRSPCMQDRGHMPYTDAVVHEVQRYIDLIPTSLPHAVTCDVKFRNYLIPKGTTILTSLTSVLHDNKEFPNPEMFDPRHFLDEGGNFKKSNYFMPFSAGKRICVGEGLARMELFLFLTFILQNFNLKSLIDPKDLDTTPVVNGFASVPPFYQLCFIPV

COC(=O)c1ccc(-n2c(C)cc(/C=N/n3cnnc3)c2C)cc1
EC50 [1]: > 300 µM (not active) | EC50 [2]: > 300 µM (not active)

CCCCNc1cc(=O)oc2ccccc12
AC50 (Cytochrome P450 2C9): 6.31 µM (inconclusive) | AC50 (Cytochrome P450 3A4): 17.8 µM (inconclusive)

CCOC(=O)c1ccc(Oc2nc(NC(C)(C)C)nc(N(C)C)n2)cc1
EC50 [3]: > 38 µM (not active) | EC50 [4]: > 150 µM (inactive)

Cc1noc(/C=C/N(C)C)c1S(=O)(=O)N1CCC(C(=O)O)CC1
EC50 [1]: > 300 µM (not active) | EC50 [2]: > 300 µM (not active)

O=C(NCc1nc(-c2ccc(C(F)(F)F)cc2)no1)Nc1ccc(OC(F)(F)F)cc1
AC50 [5]: 2.68 µM (active)

Cc1ccc(NCCC(=O)c2ccc(Cl)cc2)cc1
AC50 (Cytochrome P450 2C9): 3.98 µM (inconclusive) | AC50 (Cytochrome P450 3A4): 12.6 µM (inconclusive)

C/C(NCc1ccco1)=C1\C(=O)NC(=O)N(c2ccccc2)C1=O
AC50 (Cytochrome P450 2C9): 39.8 µM (inconclusive)

CC(C)CC(=O)NC(N=C(S)Nc1sc2c(c1C#N)CCCC2)C(Cl)(Cl)Cl (centres undefined)
EC50 [6]: 3.06 µM (active) | EC50 (Streptokinase A): 3.23 µM (active) | EC50 (Streptococcus): 6.32 µM (active) | AC50 [5]: 0.974 µM (active)

O=c1c(F)cn(C2CCCO2)c(=O)n1Cc1c(F)cccc1Cl (centres undefined)
EC50 [3]: > 38 µM (not active) | EC50 [4]: > 150 µM (inactive)

c1nc(NCc2ccc3c(c2)OCO3)c2cc(-c3ccc4c(c3)OCCO4)ccc2n1
AC50 (INS1): 10.4 µM (active)

CC(C)c1ccc(NC(=O)NC(C)c2ccc3c(c2)OCO3)cc1 (centres undefined)
EC50 [6]: > 150 µM (not active) | EC50 (Streptokinase A): > 150 µM (not active) | EC50 (Streptococcus): > 150 µM (not active)

COc1ccc(OC)c(-c2csc(NC(=O)c3ccc(F)cc3)n2)c1
AC50 [5]: 2.38 µM (active)

O=C1Nc2cc(C(=O)N3CCN(c4ccccn4)CC3)ccc2S/C1=C\c1ccccc1
EC50 [6]: 3.55 µM (active) | EC50 (Streptokinase A): > 150 µM (not active) | EC50 (Streptococcus): 18.2 µM (active)

COc1cccc(C(=O)NNC(=O)c2ccccc2Br)c1
EC50 [3]: > 38 µM (not active) | EC50 [4]: > 150 µM (inconclusive)

COc1ccc(-c2cc(C(=O)N3CC4(C)CC3CC(C)(C)C4)no2)cc1 (centres undefined)
AC50 [5]: 0.442 µM (active)

CC(C)CC(NC(=O)C(NC(=O)C(Cc1ccc(OCc2ccccc2)cc1)NC(=O)OC(C)(C)C)C(C)C)C(N)=O (stereo not drawn) (Boc-Tyr(Bn)-Val-Leu-NH2; configuration not given here)
AC50 [5]: 24.4 µM (active)

O=C(CN1C(=O)S/C(=C\c2ccccn2)C1=O)Nc1ccccc1
EC50 [3]: > 38 µM (not active) | EC50 [4]: 89.4 µM (active)

COc1ccc(C2C(C#N)=C(N)OC3=C2C(=O)CCC3)cc1OC (centres undefined)
EC50 [1]: > 300 µM (not active) | EC50 [2]: > 300 µM (not active)

Cc1ccccc1Oc1nc(-c2ccccn2)nc2ccccc12
EC50 [6]: 12.4 µM (active) | EC50 (Streptokinase A): > 150 µM (not active) | EC50 (Streptococcus): 18.5 µM (active) | AC50 (INS1): 2.19 µM (active)

Brc1ccc(CN2CCN(Cc3c[nH]c4ccccc34)CC2)cc1
AC50 (INS1): 6.68 µM (active)

CC(C)CCC(CCNCc1ccccn1)c1ccc(Cl)cc1 (centres undefined)
EC50 [6]: 7.65 µM (active) | EC50 (Streptokinase A): > 150 µM (not active) | EC50 (Streptococcus): 132 µM (active)

Cn1c(=O)c(-c2cc(F)cc(F)c2)nc2cnc(N3CCNCC3)nc21
AC50 (Cytochrome P450 2C9): 25.1 µM (inconclusive) | AC50 (Cytochrome P450 3A4): 31.6 µM (inconclusive)

CCCCc1nc(NCc2ccccc2)c(C#N)c2c1CCCC2
EC50 [6]: 9.14 µM (active) | EC50 (Streptokinase A): 2.96 µM (active) | EC50 (Streptococcus): 19.1 µM (active)

C1=C(c2ccccc2)Nc2nnnn2C1c1cccs1 (centres undefined)
EC50 [1]: > 300 µM (not active) | EC50 [2]: > 300 µM (not active)

Cc1ccc(Cn2c(=N)c(C(=O)NCC3CCCO3)cc3c(=O)n4ccccc4nc32)cc1 (centres undefined)
EC50 [1]: > 300 µM (not active) | EC50 [2]: > 300 µM (not active)

O=c1cnc2cncnc2n1Cc1ccccc1
AC50 (Cytochrome P450 2C9): 31.6 µM (inconclusive) | AC50 (Cytochrome P450 3A4): 20 µM (inconclusive) | AC50 (Cytochrome P450 2C19): 39.8 µM (inconclusive)

CC1=NN(C(N)=S)C(=O)C1N=Nc1c(Cl)cc([N+](=O)[O-])cc1Cl (centres undefined)
EC50 [1]: 85.9 µM (active) | EC50 [2]: > 300 µM (not active)

COc1cc(/C=N/Nc2ccc(F)cc2F)cc(OC)c1OC
EC50 [3]: > 38 µM (not active) | EC50 [4]: 20.8 µM (active)

CCc1ccc(-c2ccc3nnc(SCC(N)=O)n3n2)cc1
EC50 [6]: 1.83 µM (active) | EC50 (Streptokinase A): > 150 µM (not active) | EC50 (Streptococcus): 18.6 µM (active)

Cc1nn(-c2ccccc2)c(N2CCCC2)c1/C=C1\N=C(c2ccc(F)cc2)OC1=O
EC50 [1]: 56.7 µM (active) | EC50 [2]: > 300 µM (inconclusive)

Cc1ccc(C2(C)NC(=O)N(CC(=O)Nc3cc(C)on3)C2=O)cc1 (centres undefined)
AC50 (Cytochrome P450 2C9): 14.1 µM (inconclusive) | AC50 (Cytochrome P450 3A4): 25.1 µM (inconclusive)

COc1ccc(Nc2nnc(-c3ccccc3)c3ccccc23)cc1C(=O)N1CCCCC1
AC50 [5]: 31.2 µM (active)

CCn1cc(C(=O)NCc2ccccn2)c(=O)c2cc(S(=O)(=O)N3CCCCC3)ccc21
EC50 [1]: 102 µM (active) | EC50 [2]: 154 µM (active)

CS(=O)(=O)Nc1ccc(C2=NN(C(=O)C3CCCCC3)C(c3cccs3)C2)cc1 (centres undefined)
EC50 [6]: 4.11 µM (active) | EC50 (Streptokinase A): > 150 µM (not active) | EC50 (Streptococcus): 6.38 µM (active)

C=CCNC(=S)Nc1cc(Cl)ccc1OC
EC50 [1]: > 300 µM (not active) | EC50 [2]: > 300 µM (not active)

O=C(O)c1cc(O)ccc1NC(=O)C(c1ccccc1)c1ccccc1
AC50 [5]: > 195 µM (inactive)

CC1(OC(=O)c2ccc(Cl)nc2)C(=O)C=C2C=C(C3CC3)OC=C2C1=O (centres undefined)
EC50 [1]: 14.3 µM (active) | EC50 [2]: 15.1 µM (active)

COC(=O)CCCC1=CC2=CC(=O)C(C)(O)C(=O)C2=CO1 (centres undefined)
EC50 [1]: 29 µM (active) | EC50 [2]: > 300 µM (not active)

Cn1c(SCc2ccccc2)nnc1-c1ccc2c(c1)OCO2
EC50 (H4): 29.8 µM (inconclusive) | EC50 [7]: 95.9 µM (active)

Cc1ccccc1/C=C/c1nc(O)c2ccccc2n1
EC50 (H4): 1.13 µM (active)

Oc1c(C(c2ccccn2)N2CCC(Cc3ccccc3)CC2)cc(Cl)c2cccnc12 (centres undefined)
EC50 [3]: 1.46 µM (active) | EC50 [4]: 13.9 µM (inconclusive)

Cc1cc(Cl)c2oc(C(=O)N3CCC(O)(c4ccccc4)CC3)c(C)c2c1
EC50 [6]: 5.13 µM (active) | EC50 (Streptokinase A): > 150 µM (not active) | EC50 (Streptococcus): 14.8 µM (active)

CCOC(=O)c1c(NC(=S)N2CCN(C)CC2)sc(C)c1-c1ccccc1
EC50 (Streptokinase A): 22.4 µM (active)

Nc1ccc(/N=N\c2ccc(-c3ccc(O)cc3)cc2)c2ccc(S(=O)(=O)O)cc12
AC50 (Cytochrome P450 2C9): 5.01 µM (inconclusive) | AC50 (Cytochrome P450 2C19): 6.31 µM (inconclusive)

CSc1nnc(N2C(=O)C(O)=C(C(=O)c3ccco3)C2c2ccccc2)s1 (centres undefined)
EC50 [1]: 76.6 µM (active) | EC50 [2]: > 300 µM (inconclusive)

COc1ccc(S(=O)(=O)n2ccc(-c3cnc(-c4ccccc4)s3)n2)cc1
EC50 (H4): 41.2 µM (active) | EC50 [7]: > 120 µM (not active)

COc1ccc(OC)c(C(=O)CSc2nccc(-c3ccc(Br)cc3)n2)c1
AC50 [5]: 1.33 µM (active)
